Here are results for eight compounds from patent US5386017A, “Alkenes for producing chemiluminescent 1, 2-dioxetane compounds” (priority 1990, dated 1995).

Data set [1] deals with Aryl esterase (carboxylic ester hydrolase) from porcine liver. The experiment in a line: Enzymatic triggering of chemiluminescence with aryl esterase. It is filed as biochemical. Particulars: for effect of competing substrate on light intensity of dioxetane 2e reaction: 10 μL of […] added at maximum emission, pH 7.6 phosphate buffer, 37° C. As to the method:
A secondary stock solution of the acetate-protected dioxetane 2e was made by evaporating an aliquot of the methylene chloride stock equivalent to 10 micromoles of dioxetane and dissolving in 5.0 mL of 2-methoxyethanol to give a final concentration of 0.002M. […] Buffer solutions prepared in distilled water were 0.05M phosphate pH 7.6 and 8.0, 0.02M Tris (tris-hydroxymethylaminomethane maleate) pH 7.6, and pH 9.0 phosphate/borate buffer. Aryl esterase (also called carboxylic ester hydrolase (P-5221)) from porcine liver was purchased from Sigma Chemical Co. as a suspension of 11 mg of protein per mL in 3.2M (NH4)2 SO4 solution pH 8.0. Each mg of protein is equivalent to 260 Units, where 1 Unit is defined as the amount which will hydrolyze 1 micromole of ethyl butyrate in 1 minute at pH 8.0, 25° C. […] Injection of 1 μL of (0.26 units) of aryl esterase to the stirred solution caused a chemiluminescent signal to appear. The intensity reached a maximum at about 3 minutes and decayed over a 30 minute period.
3.) When distilled water was substituted for the Tris buffer, no chemiluminescence signal was observed, but on adding Tris buffer to this solution light emission similar to that above was produced. […] Addition of untreated enzyme preparation to this solution again produced light. […] The emission could be totally extinguished by addition of sufficient SDS. The decrease in light emission is not due to photophysical quenching of the excited state since thermal decomposition in the same solvent system at elevated temperatures results in readily detectable chemiluminescence.
This type of behavior explains the effect of the addition of the known esterase substrates α-naphthyl acetate and β-naphthyl acetate. […] A solution of 25 μL of the dioxetane stock (0.002M) in 3 mL of pH 7.6 phosphate buffer maintained at 37° C. was treated wtih 5μL of the enzyme to initiate the chemiluminescence. At the point of maximum emission 10 μL of 0.011M solution of either α- or β-naphthyl acetate were added.

Data set [2] is classed as physicochemical. The settings on record: for Ea: activation energy for decomposition in xylene; for log A / k (sec^-1) at 25° C. / t1/2 at 25° C.: decomposition in xylene. On the procedure: Rates of dioxetane decomposition were monitored by the decay of chemiluminescence of aerated solutions. A cylindrical Pyrex vial equipped with magnet stir bar was filled with 3-4 mL of the reaction solvent, sealed with a Teflon-lined screw cap and placed in the thermostatted sample block of the chemiluminescence-measuring apparatus (Black Box). Temperature control was provided by an external circulating water bath. Appropriate values for the instrument gain and optical slit size were selected. […]. The vial was sealed with a Teflon-lined screw cap to prevent evaporation when high temperatures were used. Measurement of the signal was begun by opening the shutter. The chemiluminescent decay was generally recorded for at least three half-lives. Calculation of the first-order rate constant, k, from the In(Intensity) vs. time data was performed by a computer program utilizing a standard least-squares treatment. The correlation coefficient, r, was typically at least 0.999 and varied less than 5% between replicate samples. The observed rate was not measurably concentration dependent.
Activation parameters for decomposition of the dioxetanes were calculated from plots of In k vs. l/T (Arrhenius eq.) or In k/t vs. l/T (Eyring eq.) by a standard least-squares linear regression analysis.

For data set [3] the following is noted: 25° C.; cited from earlier work.
The mark [4] stands for this setting: 0.26 units aryl esterase, pH 7.6 Tris buffer, 25° C.

With `COC1(c2ccc3cc(OC(C)=O)ccc3c2)OOC12C1CC3CC(C1)CC2C3` (centres unmarked) [Dioxetane 2e, 4-(6-Acetoxy-2-naphthyl)-4-methoxyspiro[1,2-dioxetane-3,2' -adamantane]], the “chemiluminescence signal without enzyme” value in data set [1] (0.3 μmol in 3.0 mL pH 7.6 Tris buffer, 25° C., before enzyme) is recorded as “no chemiluminescence signal was detected”. Also, in data set [1] (setting [4]), the “period of decay of chemiluminescence” value was 30 min and the “time to maximum chemiluminescence intensity” value is reported as “about 3 minutes”. The “duration of thermal chemiluminescence” value in data set [2] (aliquot in 3 mL o-xylene at 95° C.) is reported as “persisted for several hours”.

Regarding `CCCCCCCCCCCCOS(=O)(=O)[O-].[Na+]` [sodium lauryl sulfate (SDS), sodium lauryl sulfate, reference compound], the “effect of enzyme inhibitor on light emission” value in data set [1] (added at maximum emission, Tris buffer, 1.5 μL enzyme) is given as “irreversible decrease in the intensity”.

With `COC1(c2ccc3ccccc3c2)OOC12C1CC3CC(C1)CC2C3` (centres unmarked) [Dioxetane 2a, 4-Methoxy-4-(2-naphthyl)spiro[1,2-dioxetane-3,2'-adamantane]], in data set [2], the Ea was 29.7, the “log A” value was found to be 13.2, the “k (sec^-1) at 25° C.” value came out at 3.17e-09 s⁻¹ and the “t1/2 at 25° C.” value is 6.9 yrs.

On to `COC1(c2ccc3cc(O[Si](C)(C)C(C)(C)C)ccc3c2)OOC12C1CC3CC(C1)CC2C3` (centres unmarked) [Dioxetane 2c], for which, in data set [2], the Ea worked out at 27.0, the “log A” value was found to be 11.7, the “k (sec^-1) at 25° C.” value was 8.72e-09 s⁻¹ and the “t1/2 at 25° C.” value was found to be 2.5 yrs.

As to `CC(=O)Oc1ccc2ccccc2c1` [β-naphthyl acetate, reference compound], in data set [1], the “effect of competing substrate on light intensity of dioxetane 2e reaction” value is “rapid decrease in light intensity was noted followed by restoration of the original intensity within less than one minute”.

Take `Oc1ccc(C23OCCOC2(c2ccccc2)OO3)cc1` (centres unmarked) [deprotonated dioxetane (X=O^-)]: the “decomposition rate relative to the protonated form (X=OH)” value in data set [3] is recorded as 5.7×10^6 times faster.

Turning to `CC(=O)Oc1cccc2ccccc12` [α-naphthyl acetate, reference compound], the “effect of competing substrate on light intensity of dioxetane 2e reaction” value in data set [1] is listed as “rapid decrease in light intensity was noted followed by restoration of the original intensity within less than one minute”.

As for `COC1(c2ccc3cc(O)ccc3c2)OOC12C1CC3CC(C1)CC2C3` (centres unmarked) [Dioxetane 2b, 4-(6-Hydroxy-2-naphthyl)-4-methoxyspiro[1,2-dioxetane-3,2'-adamantane]], in data set [2], the Ea is recorded as 29.7, the “log A” value stood at 13.3, the “k (sec^-1) at 25° C.” value came to 3.83e-09 s⁻¹ and the “t1/2 at 25° C.” value is listed as 5.7 yrs.
